Laboratory results from EP0828725B1, “PROCESS FOR THE RECOVERY OF ASCORBIC ACID” (YISSUM RESEARCH DEVELOPMENT COMPANY OF THE HEBREW …, priority 1995, dated 1996).

Tests used:
[1] = Temperature sensitivity of carboxylic acid extraction by 0.5 mol/kg Alamine 304 + 10% octanol in kerosene; type: physicochemical; conditions: distribution coefficient at 30°C divided by that at 75°C; for TS in Equilibrium with Aqueous Solutions of (mol/kg) 0.05: aqueous phase 0.05 mol/kg; for TS in Equilibrium with Aqueous Solutions of (mol/kg) 0.2: aqueous phase 0.2 mol/kg; for TS in Equilibrium with Aqueous Solutions of (mol/kg) 0.3: aqueous phase 0.3 mol/kg; for TS in Equilibrium with Aqueous Solutions of (mol/kg) 0.475: aqueous phase 0.475 mol/kg
Excerpt: Referring now to said patents and the teachings thereof, one finds that the process taught therein utilizes the effect of temperature on phosphoric and carboxylic acid extraction by amine-based extractants. The term "amine" as used herein means water-immiscible amine, with a total of at least 20 carbon atoms on its chains. Said patents teach that such amine-based extractants (ABE) lose much of their extraction efficiency upon temperature elevation. This loss of efficiency is referred to as "temperature sensitivity of extraction" (TS). The magnitude of this TS can be represented by the ratio of the distribution coefficient at the lower temperature (DT1) and the distribution coefficient at the higher temperature (DT2). High TS provides for the purification and the concentration of carboxylic acids through altering the temperature between extraction and back-extraction. The acid is extracted from the fermentation liquor by an ABE at low temperature, and is then back-extracted with water at an elevated temperature. The aqueous solution obtained from that back-extraction is, in many cases, more concentrated than in the fermentation liquor. This process is referred to herein as the "temperature swing process" (TSP). The attraction of such processes is in the fact that the sole energy consumption is that of sensible heat, which saves a lot of the latent heat of water evaporation in the final concentration.

[2] = cited from earlier work
[3] = Distribution curves, extractant 1.2 mol/kg tricaprylyl amine (50%) and 3.8 mol/kg octanol (50%) (Fig. 3); type: physicochemical; conditions: extraction at 25°C and back-extraction at 96°C
Method: Fig. 3 illustrates distribution curves for extraction by an extractant composed of 1.2 mol/kg tricaprylyl amine (50%) and 3.8 mol/kg octanol (50%). The loading of the extractant in contact with 0.2 mol/kg ascorbic acid containing aqueous solution is about 0.5 mol/kg. […] The effect is even more impressive at the low concentrations end. […] A concentration factor of about 4 can be reached on extraction at 25°C and back-extraction at 96°C.

[4] = Distribution curves, extractant 1.2 mol/kg tricaprylyl amine and 2.4 mol/kg octanol in kerosene (Fig. 2); type: physicochemical; conditions: temperature gradient of 25-80°C
[5] = Extraction at 25°C and stripping at about 96°C with 50% w/w tridodecylamine and 50% w/w 1-n-octanol, recycled extractant; type: physicochemical; conditions: practically complete extraction with recycled extractant; feed 0.22 mol/kg
Method: […]. […] […]. The extractant was composed of 50% w/w tridodecylamine and 50% w/w of 1-n-octanol. The extraction was conducted at 25°C and the stripping at about 96°C.
Extraction as in Example 12 (100 g aqueous, 40 g extractant, 3 countercurrent stages) results in practically complete extraction of the acid to form an extract (loaded extractant) comprising 5% w/w lactic acid. […]. About two-thirds of the extracted lactic acid stays in the organic phase. Re-use of this organic phase in extraction from 2% lactic acid solutions results in low yields; not more than 20% of the acid is extracted. Increasing the number of stages in extraction has only a small effect. Near complete stripping and thus high yield in re-use of the organic phase requires about 150 g water per 40 g of extract, and 6-7 countercurrent stages. […]
Stripping the extract at 96°C with 35 g water results in an aqueous solution comprising 0.6 mol/kg ascorbic acid and an organic phase practically free of ascorbic acid. Re-use of this organic phase in extraction provides an extraction yield of at least 95% at the above conditions.

Row | Structure (SMILES) | TS in Equilibrium with Aqueous Solutions of (mol/kg) 0.05 [1] | TS in Equilibrium with Aqueous Solutions of (mol/kg) 0.2 [1] | TS in Equilibrium with Aqueous Solutions of (mol/kg) 0.3 [1] | TS in Equilibrium with Aqueous Solutions of (mol/kg) 0.475 [1] | pKa [2] | temperature sensitivity [3] | uphill concentration factor [4] | product diluted compared with the feed [5] [times]
1 | O=C(O)CC(=O)O [Malonic] | 3.6 | 1.5 | 1.3 | 1.1 |  |  |  | 
2 | O=C(O)[C@H](O)[C@@H](O)[C@H](O)[C@H](O)CO [Gluconic] | 2.1 | 2.3 | 2.4 | 2.6 |  |  |  | 
3 | O=C(O)CC(O)C(=O)O (stereo not drawn) [Malic] | 4.0 | 4.3 | 4.0 | 4.0 | 3.22 |  |  | 
4 | O=C(O)CC(O)(CC(=O)O)C(=O)O [Citric, citric acid] | 6.0 | 3.1 | 2.6 | 2.2 |  | Practically no temperature sensitivity |  | 
5 | O=C(O)CCC(=O)O [Succinic, succinic acid] | 4.3 | 4.0 | 4.0 | 4.1 |  |  | about 2 | 
6 | O=C(O)C(O)C(O)C(=O)O (stereo not drawn) [Tartaric] | 3.4 | 3.2 | 2.7 | 2.4 |  |  |  | 
7 | O=C(O)/C=C\C(=O)O [Maleic] | 1.1 | 1.0 | 1.0 | 1.0 |  |  |  | 
8 | CC(O)C(=O)O (stereo not drawn) [Lactic, lactic acid] | 2.5 | 2.4 | 2.4 | 2.2 |  |  |  | 4
9 | CC(C)C(=O)O [Isobutyric] | 1.9 | 1.5 | 1.4 | 1.1 |  |  |  | 
10 | O=C(O)CCCC(=O)O [Glutaric] | 3.9 | 4.5 | 4.5 | 4.4 | 4.4 |  |  | 
